Test results: the supplement of paper PMC12463676, “Small-molecule dissolution of stress granules by redox modulation benefits ALS models” (Nature Chemical Biology, 2025)

How the values were obtained:
lipoamide = compound: NC(=O)CCCCC1CCSS1 [lipoamide]; experiment: thermal stability z-score vs DMSO; higher = more thermally stabilized by treatment; settings: HeLa, lipoamide concentration 100 µM
Protocol: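 Cellular thermal proteome profiling in HeLa cells. Cells were treated with 100 µM lipoamide for 1 h, with or without 1 mM arsenate for a further 1 h, then heated to ten temperatures (37-66.3 °C), and soluble protein was quantified by TMT mass spectrometry relative to 0.1% DMSO controls. The thermal stability score (sum of log2 fold changes minus the abundance score) was transformed to a z-score; mean of n = 3 experiments.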

potassium arsenate = compound: O=[As]([O-])(O)O.[K+] [potassium arsenate]; experiment: as above; settings: HeLa; arsenate concentration 1 mM
Protocol: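 Cellular thermal proteome profiling in HeLa cells treated with 1 mM arsenate for 1 h (DMSO pretreatment), heated to ten temperatures (37-66.3 °C). Soluble protein was quantified by TMT mass spectrometry relative to DMSO controls; the thermal stability score was transformed to a z-score; mean of n = 3 experiments.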

[1] = arsenate co-treatment: 1 mM arsenate 1 h
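Note: each temperature applied for 3 min, abundance score taken as mean log2 fold change at the two lowest temperatures, z-score obtained by mean subtraction and division by SD.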

Sequence of UniProt Q8IUF8 (Q8IUF8 whole entry): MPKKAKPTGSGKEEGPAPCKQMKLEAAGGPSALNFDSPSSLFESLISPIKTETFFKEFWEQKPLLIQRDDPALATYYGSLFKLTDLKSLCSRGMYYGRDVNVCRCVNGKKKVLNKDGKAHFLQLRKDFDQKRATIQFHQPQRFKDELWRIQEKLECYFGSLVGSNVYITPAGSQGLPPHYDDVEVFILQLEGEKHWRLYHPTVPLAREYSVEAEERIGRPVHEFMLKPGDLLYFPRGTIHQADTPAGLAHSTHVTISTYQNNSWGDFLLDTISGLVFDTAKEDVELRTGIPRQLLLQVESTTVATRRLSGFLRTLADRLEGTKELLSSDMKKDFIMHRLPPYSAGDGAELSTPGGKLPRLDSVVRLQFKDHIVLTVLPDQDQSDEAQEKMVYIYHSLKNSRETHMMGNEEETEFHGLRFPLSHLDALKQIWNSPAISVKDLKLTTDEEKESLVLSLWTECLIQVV
Sequence of UniProt Q9UBQ6 (Q9UBQ6 whole entry): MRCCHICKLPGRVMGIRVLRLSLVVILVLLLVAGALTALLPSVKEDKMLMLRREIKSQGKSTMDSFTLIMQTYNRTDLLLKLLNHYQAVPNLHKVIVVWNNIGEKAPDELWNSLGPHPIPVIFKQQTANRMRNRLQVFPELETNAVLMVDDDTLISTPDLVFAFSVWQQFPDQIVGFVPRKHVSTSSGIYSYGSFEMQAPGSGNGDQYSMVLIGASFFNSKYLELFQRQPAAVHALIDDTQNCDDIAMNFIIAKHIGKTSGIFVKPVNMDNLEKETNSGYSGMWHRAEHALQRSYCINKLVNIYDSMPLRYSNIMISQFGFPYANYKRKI
Sequence of UniProt O75844 (O75844 whole entry): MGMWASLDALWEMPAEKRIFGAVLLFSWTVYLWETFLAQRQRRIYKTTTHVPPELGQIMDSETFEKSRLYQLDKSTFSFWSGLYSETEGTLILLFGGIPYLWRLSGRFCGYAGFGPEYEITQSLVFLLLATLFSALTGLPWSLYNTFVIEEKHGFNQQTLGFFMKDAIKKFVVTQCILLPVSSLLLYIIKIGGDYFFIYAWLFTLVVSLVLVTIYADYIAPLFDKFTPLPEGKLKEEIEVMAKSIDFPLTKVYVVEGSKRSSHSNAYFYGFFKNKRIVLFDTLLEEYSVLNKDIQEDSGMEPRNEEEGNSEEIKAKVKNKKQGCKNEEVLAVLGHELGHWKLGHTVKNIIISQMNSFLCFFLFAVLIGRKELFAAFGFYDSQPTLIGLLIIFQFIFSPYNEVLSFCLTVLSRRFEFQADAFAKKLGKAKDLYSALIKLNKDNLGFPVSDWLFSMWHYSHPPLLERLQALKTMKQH
Sequence of UniProt P16989 (P16989 whole entry): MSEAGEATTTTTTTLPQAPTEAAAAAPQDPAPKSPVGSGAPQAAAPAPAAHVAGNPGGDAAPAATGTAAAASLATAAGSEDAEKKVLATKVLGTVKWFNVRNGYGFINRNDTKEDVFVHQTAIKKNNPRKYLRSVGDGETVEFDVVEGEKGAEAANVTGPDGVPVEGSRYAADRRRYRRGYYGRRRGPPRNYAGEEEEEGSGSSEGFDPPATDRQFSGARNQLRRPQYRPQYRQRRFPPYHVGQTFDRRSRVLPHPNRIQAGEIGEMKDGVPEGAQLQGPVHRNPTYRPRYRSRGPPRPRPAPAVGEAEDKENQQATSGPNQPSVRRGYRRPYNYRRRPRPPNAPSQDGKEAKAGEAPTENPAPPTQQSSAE
Sequence of UniProt Q13563 (Q13563 whole entry): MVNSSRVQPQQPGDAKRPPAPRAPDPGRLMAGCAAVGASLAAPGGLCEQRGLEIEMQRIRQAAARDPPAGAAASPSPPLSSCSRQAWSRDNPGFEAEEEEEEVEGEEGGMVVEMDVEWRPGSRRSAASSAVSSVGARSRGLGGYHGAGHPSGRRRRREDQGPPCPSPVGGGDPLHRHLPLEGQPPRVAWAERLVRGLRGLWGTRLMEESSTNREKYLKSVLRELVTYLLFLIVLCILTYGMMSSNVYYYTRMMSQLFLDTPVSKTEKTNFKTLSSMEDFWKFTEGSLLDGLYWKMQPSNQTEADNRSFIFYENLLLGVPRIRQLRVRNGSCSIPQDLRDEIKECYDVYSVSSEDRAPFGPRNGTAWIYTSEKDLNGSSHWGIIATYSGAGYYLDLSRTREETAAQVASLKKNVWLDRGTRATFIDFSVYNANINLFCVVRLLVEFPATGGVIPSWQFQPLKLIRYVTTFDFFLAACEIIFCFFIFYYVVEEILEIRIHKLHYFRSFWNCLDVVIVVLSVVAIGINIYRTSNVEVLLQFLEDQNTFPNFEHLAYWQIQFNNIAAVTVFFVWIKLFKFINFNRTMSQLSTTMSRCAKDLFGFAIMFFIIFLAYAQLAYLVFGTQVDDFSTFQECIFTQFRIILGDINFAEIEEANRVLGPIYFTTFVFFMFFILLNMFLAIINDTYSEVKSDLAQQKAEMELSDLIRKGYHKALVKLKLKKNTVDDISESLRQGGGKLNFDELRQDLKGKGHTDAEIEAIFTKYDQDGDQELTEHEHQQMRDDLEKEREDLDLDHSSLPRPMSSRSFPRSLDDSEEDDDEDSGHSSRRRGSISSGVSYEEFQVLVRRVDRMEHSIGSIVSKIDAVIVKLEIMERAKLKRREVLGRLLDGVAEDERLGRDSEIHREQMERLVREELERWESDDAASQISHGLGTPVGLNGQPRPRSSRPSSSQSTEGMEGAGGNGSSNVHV
Sequence of UniProt Q9Y696 (Q9Y696 whole entry): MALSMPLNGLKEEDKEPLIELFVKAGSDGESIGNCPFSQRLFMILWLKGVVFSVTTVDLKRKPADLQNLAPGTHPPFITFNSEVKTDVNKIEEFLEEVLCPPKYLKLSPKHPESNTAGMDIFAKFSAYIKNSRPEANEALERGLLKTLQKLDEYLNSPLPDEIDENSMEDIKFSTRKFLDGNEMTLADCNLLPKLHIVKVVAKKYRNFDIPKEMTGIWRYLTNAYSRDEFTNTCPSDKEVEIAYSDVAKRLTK
Sequence of UniProt Q53GQ0 (Q53GQ0 whole entry): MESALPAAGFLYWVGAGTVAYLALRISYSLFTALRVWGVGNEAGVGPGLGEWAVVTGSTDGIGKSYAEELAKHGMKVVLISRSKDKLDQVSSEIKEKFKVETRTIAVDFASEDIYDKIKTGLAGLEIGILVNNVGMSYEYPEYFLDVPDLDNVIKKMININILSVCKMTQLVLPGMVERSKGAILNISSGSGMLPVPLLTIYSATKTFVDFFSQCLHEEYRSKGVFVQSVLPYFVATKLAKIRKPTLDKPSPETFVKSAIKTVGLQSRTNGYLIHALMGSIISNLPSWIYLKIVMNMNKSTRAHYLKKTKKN
Sequence of UniProt Q8IYS1 (Q8IYS1 whole entry): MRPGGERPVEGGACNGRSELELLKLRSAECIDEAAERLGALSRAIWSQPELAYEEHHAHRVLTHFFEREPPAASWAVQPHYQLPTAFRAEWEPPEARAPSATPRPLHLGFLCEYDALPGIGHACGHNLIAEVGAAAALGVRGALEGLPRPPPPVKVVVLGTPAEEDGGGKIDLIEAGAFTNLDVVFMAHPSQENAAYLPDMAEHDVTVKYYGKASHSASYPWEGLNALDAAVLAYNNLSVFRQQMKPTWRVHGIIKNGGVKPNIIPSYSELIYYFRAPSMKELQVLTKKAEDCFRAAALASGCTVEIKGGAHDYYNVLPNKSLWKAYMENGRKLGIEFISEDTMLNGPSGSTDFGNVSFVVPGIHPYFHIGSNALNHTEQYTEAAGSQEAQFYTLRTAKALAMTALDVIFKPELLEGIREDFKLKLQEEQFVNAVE
Sequence of UniProt Q9NSK0 (Q9NSK0 whole entry): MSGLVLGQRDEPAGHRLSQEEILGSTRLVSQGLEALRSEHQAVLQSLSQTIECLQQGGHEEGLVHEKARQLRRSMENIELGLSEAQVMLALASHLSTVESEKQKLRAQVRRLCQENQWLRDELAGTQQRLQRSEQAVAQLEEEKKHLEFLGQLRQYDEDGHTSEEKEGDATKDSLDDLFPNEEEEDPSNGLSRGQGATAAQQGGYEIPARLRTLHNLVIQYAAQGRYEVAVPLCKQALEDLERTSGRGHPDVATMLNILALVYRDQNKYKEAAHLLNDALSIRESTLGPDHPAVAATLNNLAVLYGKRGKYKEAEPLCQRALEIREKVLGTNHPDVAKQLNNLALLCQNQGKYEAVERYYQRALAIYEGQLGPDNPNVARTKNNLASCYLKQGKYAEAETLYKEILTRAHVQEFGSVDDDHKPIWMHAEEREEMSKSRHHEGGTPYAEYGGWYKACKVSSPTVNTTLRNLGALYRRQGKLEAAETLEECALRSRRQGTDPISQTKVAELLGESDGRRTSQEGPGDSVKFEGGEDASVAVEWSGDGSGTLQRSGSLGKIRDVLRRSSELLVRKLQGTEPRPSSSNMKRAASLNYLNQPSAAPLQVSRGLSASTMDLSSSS
Sequence of UniProt Q15004 (Q15004 whole entry): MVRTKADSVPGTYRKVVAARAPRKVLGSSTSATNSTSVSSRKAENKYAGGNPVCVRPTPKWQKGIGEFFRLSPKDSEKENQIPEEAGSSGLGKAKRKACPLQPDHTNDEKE
Sequence of UniProt Q16718 (Q16718 whole entry): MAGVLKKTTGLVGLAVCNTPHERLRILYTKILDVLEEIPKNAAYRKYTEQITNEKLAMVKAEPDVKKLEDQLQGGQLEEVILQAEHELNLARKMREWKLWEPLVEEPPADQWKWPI
Sequence of UniProt Q9BX68 (Q9BX68 whole entry): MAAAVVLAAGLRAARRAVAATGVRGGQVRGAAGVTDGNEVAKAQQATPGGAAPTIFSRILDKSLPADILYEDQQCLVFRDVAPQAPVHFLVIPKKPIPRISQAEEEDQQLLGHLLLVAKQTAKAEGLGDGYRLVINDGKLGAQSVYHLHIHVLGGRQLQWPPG
Sequence of UniProt Q9P000 (Q9P000 whole entry): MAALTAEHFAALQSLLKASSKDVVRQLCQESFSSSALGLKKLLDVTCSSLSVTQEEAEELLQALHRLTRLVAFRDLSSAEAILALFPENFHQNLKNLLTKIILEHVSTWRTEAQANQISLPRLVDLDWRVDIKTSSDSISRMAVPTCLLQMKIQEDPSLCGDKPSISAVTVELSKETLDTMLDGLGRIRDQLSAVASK

| Target | thermal stability z-score (lipoamide; [1]) | thermal stability z-score (lipoamide; arsenate co-treatment: none) | thermal stability z-score (potassium arsenate) |
| --- | --- | --- | --- |
| CRIP2 (UniProt P52943) | -0.0467 | 0.146 | -0.637 |
| COMMD9 (UniProt Q9P000) | -0.221 | -0.146 | -0.0631 |
| C12ORF43 (UniProt Q96C57) | 0.941 | -0.0235 | -1.08 |
| NOLC1 (UniProt Q14978) | 0.36 | 0.113 | -0.695 |
| CMIP (UniProt Q8IY22) | -0.151 | -0.146 | -0.236 |
| ALAD (UniProt P13716) | 0.313 | 0.885 | 0.112 |
| HSD17B12 (UniProt Q53GQ0) | 0.28 | 0.0767 | 0.614 |
| PDZD11 (UniProt Q5EBL8) | -0.0819 | -0.0179 | 0.0963 |
| NEURL4 (UniProt Q96JN8) | -0.125 | 0.0814 | 0.00875 |
| TBCA (UniProt O75347) | 0.458 | 1.12 | 0.264 |
| BNIP1 (UniProt Q12981) | 0.261 | -0.294 | 0.0814 |
| MRPL14 (UniProt Q6P1L8) | -0.566 | 0.0684 | 1.59 |
| XPO7 (UniProt Q9UIA9) | -0.0212 | -0.0682 | 0.621 |
| ANKMY2 (UniProt Q8IV38) | 0.0659 | 0.00957 | 0.0818 |
| FURIN (UniProt P09958) | 0.3 | 0.345 | 0.11 |
| KCTD5 (UniProt Q9NXV2) | -1.92 | -1.4 | -1.43 |
| EXTL2 (UniProt Q9UBQ6) | 1.05 | 0.893 | 0.453 |
| PM20D2 (UniProt Q8IYS1) | 0.623 | 1.29 | 1.81 |
| HINT2 (UniProt Q9BX68) | -0.459 | -0.337 | -1.98 |
| HUWE1 (UniProt Q7Z6Z7) | -0.216 | 0.0195 | 0.187 |
| MED18 (UniProt Q9BUE0) | -0.0409 | 0.0953 | -0.382 |
| RPS14 (UniProt P62263) | 0.641 | 0.21 | -0.926 |
| KIAA0101 (UniProt Q15004) | 0.253 | 0.245 | 0.49 |
| ZMPSTE24 (UniProt O75844) | 0.105 | -0.234 | 0.325 |

| Target | thermal stability z-score (lipoamide; [1]) | thermal stability z-score (lipoamide; arsenate co-treatment: none) | thermal stability z-score (potassium arsenate) |
| --- | --- | --- | --- |
| DIMT1 (UniProt Q9UNQ2) | 0.142 | 0.0753 | -0.418 |
| FANCB (UniProt Q8NB91) | -0.147 | -0.547 | -1.04 |
| ARPC5 (UniProt O15511) | 0.9 | 0.484 | -0.246 |
| ICT1 (UniProt Q14197) | -0.321 | -0.282 | -0.225 |
| NANS (UniProt Q9NR45) | 0.185 | 0.107 | 0.887 |
| RANBP1 (UniProt P43487) | -0.127 | 0.319 | 0.475 |
| TXNDC17 (UniProt Q9BRA2) | 0.493 | 0.408 | 0.728 |
| PNPO (UniProt Q9NVS9) | 0.101 | 0.677 | -0.734 |
| MCCC1 (UniProt Q96RQ3) | -0.187 | -0.191 | -0.585 |
| VDAC1 (UniProt P21796) | 0.311 | 0.385 | 0.905 |
| PKD2 (UniProt Q13563) | 0.277 | 0.13 | 0.16 |
| ATE1 (UniProt O95260) | 0.315 | -0.209 | -2.08 |
| ZC3HAV1 (UniProt Q7Z2W4) | -0.627 | 0.183 | 0.156 |
| PPP4R3A (UniProt Q6IN85) | 0.268 | 0.184 | -0.165 |
| ZNF451 (UniProt Q9Y4E5) | 0.0272 | 0.0565 | 0.171 |
| NCAPD2 (UniProt Q15021) | -0.565 | -0.251 | 0.369 |
| SMCHD1 (UniProt A6NHR9) | -0.13 | -0.0876 | -0.528 |
| DBNL (UniProt Q9UJU6) | 0.473 | 0.208 | 0.99 |
| NDUFA5 (UniProt Q16718) | -0.0074 | -0.146 | 0.101 |
| KLC4 (UniProt Q9NSK0) | -1.48 | 0.259 | 0.297 |
| GPATCH11 (UniProt Q8N954) | -0.804 | -0.268 | 0.108 |
| SLTM (UniProt Q9NWH9) | 0.712 | -0.493 | -0.561 |
| IMP3 (UniProt Q9NV31) | -0.323 | -0.228 | 0.389 |
| KRAS (UniProt P01116) | 0.168 | 0.186 | 0.184 |

| Target | thermal stability z-score (lipoamide; [1]) | thermal stability z-score (lipoamide; arsenate co-treatment: none) | thermal stability z-score (potassium arsenate) |
| --- | --- | --- | --- |
| RAD17 (UniProt O75943) | -0.324 | -0.278 | -0.848 |
| GRAMD1A (UniProt Q96CP6) | -1.5 | -1.05 | 0.0677 |
| TLE2 (UniProt Q04725) | -0.165 | 0.842 | 0.141 |
| YBX3 (UniProt P16989) | 0.153 | -0.0445 | -0.672 |
| TOR1AIP2 | -3.46 | -2.77 | -0.134 |
| CIAO1 (UniProt O76071) | 0.164 | 0.0342 | -1.32 |
| KBTBD2 (UniProt Q8IY47) | -0.0161 | -0.0919 | -0.0698 |
| GPBP1 (UniProt Q86WP2) | -0.514 | -0.441 | -0.111 |
| RNF10 (UniProt Q8N5U6) | -0.0188 | -0.286 | -0.23 |
| NSUN6 (UniProt Q8TEA1) | -0.141 | -0.366 | -0.526 |
| RBM33 (UniProt Q96EV2) | 0.0301 | -0.534 | -0.175 |
| CCND3 (UniProt P30281) | 0.241 | 0.374 | -0.0207 |
| AKIRIN2 (UniProt Q53H80) | 0.0163 | -0.00376 | 0.307 |
| RQCD1 (UniProt Q92600) | -0.57 | -0.143 | 0.74 |
| UPP1 (UniProt Q16831) | -0.122 | 0.244 | -0.16 |
| BRF1 (UniProt Q92994) | -0.0333 | -0.111 | 0.035 |
| CLIC4 (UniProt Q9Y696) | 0.264 | 0.427 | -0.572 |
| PRMT9 (UniProt Q6P2P2) | 0.25 | 0.0769 | 0.171 |
| MRPS10 (UniProt P82664) | -0.41 | -0.358 | -0.309 |
| S100A13 (UniProt Q99584) | 0.758 | 1.06 | 0.67 |
| C19ORF53 (UniProt Q9UNZ5) | 0.3 | 0.508 | -0.988 |
| MINA (UniProt Q8IUF8) | 0.0507 | 0.508 | -1.34 |
| KIAA1429 (UniProt Q69YN4) | -0.266 | -0.035 | -0.0736 |
